Results published in US20230348424A1, “HETEROCYCLIC COMPOUNDS AND METHODS OF USE” (Schrödinger, Inc., priority 2022, published 2023).

Target: SOS1:KRAS (G12C) interaction (Homo sapiens (Human), UniProt Q07889)
Assay: SOS1 KRas(G12C) FRET Assay
Type: binding
Conditions: 0.5 nM His10-SOS1 (res. 564-1049), 2.5 nM GST-KRAS G12C (res. 1-169), 2 hrs at RT
Protocol: Inhibition of the SOS 1:KRAS interaction was measured using purified GST-tagged KRAS (res. 1-169, G12C, purified based on Hillig, et al., Proc Natl Acad Sci USA (2019); 116(7):2551-2560) and recombinant His10-SOS1 (res. 564-1049; purified based on Hillig, et al.). The final assay was performed at 20 uL with 0.5 nM SOS1 protein and 2.5 nM KRAS protein in a buffer of PBS, 0.1% BSA, 5 mM MgCh, 0.0025% Igepal, 100 mM KF, 5 mM DTT in a white 384 square well OptiPlate (PerkinElmer, Cat. 6007290). A 2x KRAS working solution was prepared in an assay buffer containing 5 nM GST-KRAS G12C and 2 nM anti-GST-Eu(K) (Cisbio, Cat. 61GSTKLA) and pre-incubated for 15 minutes at 25° C. […] The final DMSO concentration is 0.5%. Plates were incubated at RT for 2 hrs before the FRET signal was measured using Envision at emission 665 nm and 615 nm. FRET signal was converted to percentage of protein-protein interaction using the following equation:
• C: signal with compound treatment • P: signal for positive control (DMSO) • N: signal for negative control (no SOS1 added)
IC50 and Hill coefficients were obtained using Graph Pad Prism (Graph Pad software, Inc, USA) with non-linear regression analysis.

Sequence of SOS1:KRAS (G12C) interaction (Q07889 564-1049, stated change not applied): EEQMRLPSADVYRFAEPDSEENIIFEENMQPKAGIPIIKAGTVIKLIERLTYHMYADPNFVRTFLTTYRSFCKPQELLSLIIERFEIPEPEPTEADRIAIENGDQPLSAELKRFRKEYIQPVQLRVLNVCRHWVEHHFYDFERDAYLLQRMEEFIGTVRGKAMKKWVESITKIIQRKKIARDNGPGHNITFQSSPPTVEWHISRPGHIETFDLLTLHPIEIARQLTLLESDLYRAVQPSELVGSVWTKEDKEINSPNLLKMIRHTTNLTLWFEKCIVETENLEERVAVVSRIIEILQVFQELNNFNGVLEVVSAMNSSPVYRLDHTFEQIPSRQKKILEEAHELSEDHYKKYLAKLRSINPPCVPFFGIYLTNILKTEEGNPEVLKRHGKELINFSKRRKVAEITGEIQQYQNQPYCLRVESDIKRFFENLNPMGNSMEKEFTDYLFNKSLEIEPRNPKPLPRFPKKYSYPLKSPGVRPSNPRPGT

**Q.** How did the IC50 turn out when `C[C@@H](NC(=O)c1cn(C23COC(C)(C2)C3)c(=O)cc1NC1CCN(C)CC1)c1cccc(C(F)F)c1F` [Example 220, (R)-N-(1-(3-(difluoromethyl)-2-fluorophenyl)ethyl)-1-(1-methyl-2-oxabicyclo[2.1. 1]hexan-4-yl)-4-((1-methylpiperidin-4-yl)amino)-6-oxo-1,6-dihydropyridine-3-carboxamide] was run?
**A.** 26.8 nM

**Q.** `C[C@@H](NC(=O)c1cn(C2CCC2)c(=O)cc1N[C@H]1[C@@H]2CN(C)C[C@@H]21)c1cccc(S(F)(F)(F)(F)F)c1` [Example 163, 1-cyclobutyl-4-(((1R,5S,6s)-3-methyl-3-azabicyclo[3.1.0]hexan-6-yl)amino)-6-oxo-N-((R)-1-(3-(pentafluoro-16-sulfaneyl)phenyl)ethyl)-1,6-dihydropyridine-3-carboxamide] was tested. Which IC50 did it give?
**A.** 29.3 nM

**Q.** Which IC50 does the source give for `Cc1c([C@@H](C)NC(=O)c2cn(C3CCOCC3)c(=O)cc2N[C@H]2CCCN(C)CC2)cccc1C(F)(F)F` (single isomer, unassigned) [Example 33] here?
**A.** 18 nM

**Q.** How did the IC50 turn out when `Cc1c([C@@H](C)NC(=O)c2cn(C3CCOCC3)c(=O)cc2N[C@H]2C[C@H]3CC[C@@H]2N3C)cccc1C(F)(F)F` (single isomer, unassigned) [Example 38] was run?
**A.** 45.8 nM

**Q.** How did the IC50 turn out when `C[C@@H](NC(=O)c1cn([C@]23COC[C@H]2C3)c(=O)cc1N[C@H]1[C@@H]2CN(C)C[C@@H]21)c1cccc(C(F)(F)F)c1F` [Example 290, 1-((1S,5S)-3-oxabicyclo[3.1.0]hexan-1-yl)-N-((R)-1-(2-fluoro-3-(trifluoromethyl)phenyl)ethyl)-4-(((1R,5S,6s)-3-methyl-3-azabicyclo[3.1.0]hexan-6-yl)amino)-6-oxo-1,6-dihydropyridine-3-carboxamide] was run?
**A.** 9.2 nM

**Q.** Which IC50 does the source give for `C[C@@H](NC(=O)c1cn(C2(C)CN(C(=O)C3CC3)C2)c(=O)cc1N[C@H]1[C@@H]2CN(C)C[C@@H]21)c1cccc(C(F)F)c1F` [Example 270, 1-(1-(cyclopropanecarbonyl)-3-methylazetidin-3-yl)-N-((R)-1-(3-(difluoromethyl)-2-fluorophenyl)ethyl)-4-(((1R,5S,6s)-3-methyl-3-azabicyclo[3.1.0]hexan-6-yl)amino)-6-oxo-1,6-dihydropyridine-3-carboxamide] here?
**A.** 1.74 nM

**Q.** For `[2H]C([2H])([2H])N1CCC(Nc2cc(=O)n(C3(C(F)F)CC3)cc2C(=O)N[C@H](C)c2cccc(C(F)F)c2F)CC1` [Example 286, (R)-N-(1-(3-(difluoromethyl)-2-fluorophenyl)ethyl)-1-(1-(difluoromethyl)cyclopropyl)-4-((1-(methyl-d3)piperidin-4-yl)amino)-6-oxo-1,6-dihydropyridine-3-carboxamide], which IC50 is on record?
**A.** 15.5 nM

**Q.** For `C[C@@H](NC(=O)c1cn(C23CC(C2)C3)c(=O)cc1N[C@@H]1[C@@H]2C[C@H]1CN(C)C2)c1cccc(C(F)F)c1F` [Example 208, 1-(bicyclo[1.1.1]pentan-1-yl)-N-((R)-1-(3-(difluoromethyl)-2-fluorophenyl)ethyl)-4-(((1R,5S,6s)-3-methyl-3-azabicyclo[3.1.1]heptan-6-yl)amino)-6-oxo-1,6-dihydropyridine-3-carboxamide], which IC50 is on record?
**A.** 13 nM

**Q.** How did the IC50 turn out when `C[C@@H](NC(=O)c1cn(C2(C(F)F)CC2)c(=O)cc1NC[C@H]1CCCN1C)c1cccc(C(F)F)c1F` [Example 221, N-((R)-1-(3-(difluoromethyl)-2-fluorophenyl)ethyl)-1-(1-(difluoromethyl)cyclopropyl)-4-((((R)-1-methylpyrrolidin-2-yl)methyl)amino)-6-oxo-1,6-dihydropyridine-3-carboxamide] was run?
**A.** 38.2 nM

**Q.** Which IC50 does the source give for `Cc1c([C@@H](C)NC(=O)c2cn(C3CCOCC3)c(=O)cc2N[C@H]2CCN(C)C3(CC3)C2)cccc1C(F)(F)F` (single isomer, unassigned) [Example 39] here?
**A.** 43.7 nM

**Q.** How did the IC50 turn out when `C[C@@H](NC(=O)c1cn([C@@H]2CC2(F)F)c(=O)cc1N[C@H]1[C@@H]2CN(C)C[C@@H]21)c1cccc(C(F)(F)F)c1F` (single isomer, unassigned) [Example 199] was run?
**A.** 10.1 nM

**Q.** With `C[C@@H](NC(=O)c1cn(C2(C(F)F)CC2)c(=O)cc1N[C@H]1C[C@@H](N(C)C)C1)c1cccc(C(F)F)c1F` [Example 229, N-((R)-1-(3-(difluoromethyl)-2-fluorophenyl)ethyl)-1-(1-(difluoromethyl)cyclopropyl)-4-(((1s,3S)-3-(dimethylamino)cyclobutyl)amino)-6-oxo-1,6-dihydropyridine-3-carboxamide] as the compound, how does the IC50 read?
**A.** 22.7 nM

**Q.** Which IC50 does the source give for `C[C@@H](NC(=O)c1cn(C23CC(C2)C3)c(=O)cc1N[C@H]1[C@@H]2CNC[C@@H]21)c1cccc(C(F)F)c1F` [Example 89, 4-(((1R,5S,6s)-3-azabicyclo[3.1.0]hexan-6-yl)amino)-1-(bicyclo[1. 1.1]pentan-1-yl)-N-((R)-1-(3-(difluoromethyl)-2-fluorophenyl)ethyl)-6-oxo-1,6-dihydropyridine-3-carboxamide] here?
**A.** 22.9 nM

**Q.** How did the IC50 turn out when `C[C@@H](NC(=O)c1cn(C2(C(F)F)CC2)c(=O)cc1N[C@H]1CN2CCC1(F)CC2)c1cccc(C(F)F)c1F` [Example 186, N-((R)-1-(3-(difluoromethyl)-2-fluorophenyl)ethyl)-1-(1-(difluoromethyl)cyclopropyl)-4-(((S)-4-fluoroquinuclidin-3-yl)amino)-6-oxo-1,6-dihydropyridine-3-carboxamide] was run?
**A.** 27.5 nM

**Q.** Which IC50 does the source give for `C[C@@H](NC(=O)c1cn(C2(C(F)F)CC2)c(=O)cc1NCC12CC(O)(C1)C2)c1cccc(C(F)F)c1F` [Example 182, (R)-N-(1-(3-(difluoromethyl)-2-fluorophenyl)ethyl)-1-(1-(difluoromethyl)cyclopropyl)-4-(((3-hydroxybicyclo[1.1.1]pentan-1-yl)methyl)amino)-6-oxo-1,6-dihydropyridine-3-carboxamide] here?
**A.** 33.8 nM

**Q.** Which IC50 does the source give for `C[C@@H](NC(=O)c1cn(C23CC(C2)C3)c(=O)cc1N[C@H]1CCN(C)C[C@H]1F)c1cccc(C(F)F)c1F` (single isomer, unassigned) [Example 203] here?
**A.** 4.6 nM

**Q.** Which IC50 does the source give for `C[C@H](NC(=O)c1cn(C2(C(F)F)CC2)c(=O)cc1NC1CCN(C)CC1)c1ccc(F)c(C(F)(F)F)c1` (single isomer, unassigned) [Example 168] here?
**A.** 561 nM

**Q.** For `Cc1c([C@@H](C)NC(=O)c2cn(C3CCOCC3)c(=O)cc2N[C@H]2CC[C@]23CCCN(C)C3)cccc1C(F)(F)F` (single isomer, unassigned) [Example 298], which IC50 is on record?
**A.** 88.1 nM

**Q.** How did the IC50 turn out when `CCN1C[C@@H]2[C@H](C1)[C@H]2Nc1cc(=O)n(C2(C(F)F)CC2)cc1C(=O)N[C@H](C)c1cccc(C(F)F)c1F` [Example 58, N-((R)-1-(3-(difluoromethyl)-2-fluorophenyl)ethyl)-1-(1-(difluoromethyl)cyclopropyl)-4-(((1R,5S,6s)-3-ethyl-3-azabicyclo[3.1.0]hexan-6-yl)amino)-6-oxo-1,6-dihydropyridine-3-carboxamide] was run?
**A.** 30.8 nM

**Q.** With `Cc1c([C@@H](C)NC(=O)c2cn(C3CCOCC3)c(=O)cc2N[C@@H]2[C@@H]3CC[C@H]2CN(C)C3)cccc1C(F)(F)F` (single isomer, unassigned) [Example 31] as the compound, how does the IC50 read?
**A.** 27.6 nM

**Q.** With `C[C@@H](NC(=O)c1cn(C2C(F)(F)C23CC3)c(=O)cc1N[C@H]1[C@@H]2CN(C)C[C@@H]21)c1cccc(C(F)F)c1F` (stereo partly drawn) [Example 206, N-((R)-1-(3-(difluoromethyl)-2-fluorophenyl)ethyl)-1-(2,2-difluorospiro[2.2]pentan-1-yl)-4-(((1R,5S,6s)-3-methyl-3-azabicyclo[3.1.0]hexan-6-yl)amino)-6-oxo-1,6-dihydropyridine-3-carboxamide] as the compound, how does the IC50 read?
**A.** 137 nM
